Data set [1] deals with HGK/MAP4K4.
The target in data set [2] is T1, PKG1b (Homo sapiens, UniProt Q13976).
T1 sequence (Q13976 1-686 isoform Q13976-2): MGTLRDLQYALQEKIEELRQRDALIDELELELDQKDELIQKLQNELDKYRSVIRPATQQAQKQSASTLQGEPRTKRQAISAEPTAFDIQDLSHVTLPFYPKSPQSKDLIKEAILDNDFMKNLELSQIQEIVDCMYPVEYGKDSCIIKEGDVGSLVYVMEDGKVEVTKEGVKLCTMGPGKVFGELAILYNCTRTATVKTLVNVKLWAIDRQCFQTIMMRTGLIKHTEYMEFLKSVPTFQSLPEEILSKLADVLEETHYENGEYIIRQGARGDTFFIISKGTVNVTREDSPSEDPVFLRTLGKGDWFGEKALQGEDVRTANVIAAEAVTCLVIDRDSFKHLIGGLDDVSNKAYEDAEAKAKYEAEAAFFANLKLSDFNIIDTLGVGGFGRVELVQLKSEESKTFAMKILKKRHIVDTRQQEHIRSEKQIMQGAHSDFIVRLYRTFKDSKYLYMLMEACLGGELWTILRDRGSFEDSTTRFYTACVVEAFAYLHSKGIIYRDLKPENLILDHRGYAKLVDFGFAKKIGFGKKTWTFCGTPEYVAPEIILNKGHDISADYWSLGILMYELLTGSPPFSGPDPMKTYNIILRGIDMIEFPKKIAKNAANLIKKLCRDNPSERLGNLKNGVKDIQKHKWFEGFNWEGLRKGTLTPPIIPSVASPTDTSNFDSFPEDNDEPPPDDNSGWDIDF
Kind of data set: biochemical. The conditions noted are these: read-out: % enzyme activity, 1 μM; Run 1, Run 2.

For data set [3], the system named is TNK1.
Data set [4] deals with T2, MYO3b (Homo sapiens, UniProt Q8WXR4).
T2 sequence (Q8WXR4 1-1341): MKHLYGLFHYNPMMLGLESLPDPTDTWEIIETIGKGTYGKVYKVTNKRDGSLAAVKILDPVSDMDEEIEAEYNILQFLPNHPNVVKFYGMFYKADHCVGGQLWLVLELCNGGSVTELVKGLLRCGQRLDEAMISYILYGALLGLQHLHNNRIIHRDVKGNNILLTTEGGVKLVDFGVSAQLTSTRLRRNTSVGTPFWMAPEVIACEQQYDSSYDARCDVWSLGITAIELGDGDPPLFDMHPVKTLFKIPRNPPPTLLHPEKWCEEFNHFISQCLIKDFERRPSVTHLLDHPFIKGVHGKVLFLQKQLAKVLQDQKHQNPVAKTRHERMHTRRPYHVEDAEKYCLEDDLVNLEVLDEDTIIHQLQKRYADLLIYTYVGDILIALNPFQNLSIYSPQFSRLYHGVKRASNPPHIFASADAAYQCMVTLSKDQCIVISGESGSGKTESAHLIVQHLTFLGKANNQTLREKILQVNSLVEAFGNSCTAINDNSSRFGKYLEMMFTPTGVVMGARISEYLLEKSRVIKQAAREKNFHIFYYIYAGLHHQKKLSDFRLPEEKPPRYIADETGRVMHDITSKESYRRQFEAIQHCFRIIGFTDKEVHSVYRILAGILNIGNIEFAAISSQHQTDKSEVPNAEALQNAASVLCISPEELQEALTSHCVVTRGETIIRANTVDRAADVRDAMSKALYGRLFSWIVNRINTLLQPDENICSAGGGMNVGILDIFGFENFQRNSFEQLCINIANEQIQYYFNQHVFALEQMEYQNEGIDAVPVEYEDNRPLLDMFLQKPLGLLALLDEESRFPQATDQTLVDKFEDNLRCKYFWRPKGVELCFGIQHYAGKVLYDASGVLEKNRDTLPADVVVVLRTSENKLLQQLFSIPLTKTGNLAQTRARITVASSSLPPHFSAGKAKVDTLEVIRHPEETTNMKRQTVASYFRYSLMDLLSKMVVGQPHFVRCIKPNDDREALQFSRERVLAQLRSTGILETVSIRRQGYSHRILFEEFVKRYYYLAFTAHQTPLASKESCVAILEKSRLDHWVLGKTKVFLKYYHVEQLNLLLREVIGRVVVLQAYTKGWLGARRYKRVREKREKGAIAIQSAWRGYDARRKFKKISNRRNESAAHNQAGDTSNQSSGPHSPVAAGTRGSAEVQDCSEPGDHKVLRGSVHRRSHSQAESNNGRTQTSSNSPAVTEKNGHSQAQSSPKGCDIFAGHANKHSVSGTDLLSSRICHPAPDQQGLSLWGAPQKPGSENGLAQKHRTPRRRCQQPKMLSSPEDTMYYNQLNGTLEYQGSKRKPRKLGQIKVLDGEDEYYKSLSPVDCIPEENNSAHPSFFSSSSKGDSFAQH
The conditions noted are these: 1 μM; Run 1, Run 2.

For data set [5], the target named is MARK2/PAR-1Ba (Homo sapiens, UniProt Q7KZI7). Particulars: 1 μM; Run 1, Run 2.
Sequence of MARK2/PAR-1Ba (Q7KZI7 whole entry): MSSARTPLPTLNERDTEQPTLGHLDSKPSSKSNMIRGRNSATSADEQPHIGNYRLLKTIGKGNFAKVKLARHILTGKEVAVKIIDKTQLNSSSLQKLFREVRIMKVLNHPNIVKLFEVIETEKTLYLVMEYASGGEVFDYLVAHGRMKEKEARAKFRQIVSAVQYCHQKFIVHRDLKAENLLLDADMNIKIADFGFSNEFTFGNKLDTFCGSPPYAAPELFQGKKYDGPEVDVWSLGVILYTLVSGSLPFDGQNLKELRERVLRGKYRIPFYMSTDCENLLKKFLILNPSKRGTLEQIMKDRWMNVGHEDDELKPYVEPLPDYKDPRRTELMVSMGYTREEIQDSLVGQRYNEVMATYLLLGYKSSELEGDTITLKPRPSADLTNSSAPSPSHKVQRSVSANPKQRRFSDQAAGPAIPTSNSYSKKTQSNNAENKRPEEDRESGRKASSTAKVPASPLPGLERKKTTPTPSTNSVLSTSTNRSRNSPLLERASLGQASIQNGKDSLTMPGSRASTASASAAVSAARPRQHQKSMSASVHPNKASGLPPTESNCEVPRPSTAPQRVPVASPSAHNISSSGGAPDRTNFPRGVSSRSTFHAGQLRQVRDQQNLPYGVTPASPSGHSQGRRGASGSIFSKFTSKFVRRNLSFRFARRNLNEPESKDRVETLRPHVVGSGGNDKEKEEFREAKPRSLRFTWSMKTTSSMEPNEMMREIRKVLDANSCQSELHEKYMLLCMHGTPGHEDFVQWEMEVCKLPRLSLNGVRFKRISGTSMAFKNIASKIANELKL
The target of data set [6] is FYN (Homo sapiens, UniProt P06241). Particulars: 1 μM; Run 1, Run 2.
Sequence of FYN (P06241 whole entry): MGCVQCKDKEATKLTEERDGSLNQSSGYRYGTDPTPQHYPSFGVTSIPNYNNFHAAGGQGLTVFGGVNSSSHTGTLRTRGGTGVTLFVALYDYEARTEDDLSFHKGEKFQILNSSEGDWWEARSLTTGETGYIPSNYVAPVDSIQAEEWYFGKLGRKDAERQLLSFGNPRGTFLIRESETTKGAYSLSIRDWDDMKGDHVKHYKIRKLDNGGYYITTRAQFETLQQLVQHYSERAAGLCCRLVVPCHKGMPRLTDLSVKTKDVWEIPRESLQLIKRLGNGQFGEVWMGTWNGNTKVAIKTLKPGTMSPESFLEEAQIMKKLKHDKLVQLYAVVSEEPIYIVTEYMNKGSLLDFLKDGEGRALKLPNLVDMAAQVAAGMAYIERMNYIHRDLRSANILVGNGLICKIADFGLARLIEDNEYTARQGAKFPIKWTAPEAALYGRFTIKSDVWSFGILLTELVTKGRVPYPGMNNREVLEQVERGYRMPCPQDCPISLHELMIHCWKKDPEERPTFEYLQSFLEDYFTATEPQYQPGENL
The target in data set [7] is PAK4 (Homo sapiens, UniProt O96013). In words: biochemical. Particulars: read-out: % enzyme activity, 1 μM; Run 1, Run 2.
Sequence of PAK4 (O96013 whole entry): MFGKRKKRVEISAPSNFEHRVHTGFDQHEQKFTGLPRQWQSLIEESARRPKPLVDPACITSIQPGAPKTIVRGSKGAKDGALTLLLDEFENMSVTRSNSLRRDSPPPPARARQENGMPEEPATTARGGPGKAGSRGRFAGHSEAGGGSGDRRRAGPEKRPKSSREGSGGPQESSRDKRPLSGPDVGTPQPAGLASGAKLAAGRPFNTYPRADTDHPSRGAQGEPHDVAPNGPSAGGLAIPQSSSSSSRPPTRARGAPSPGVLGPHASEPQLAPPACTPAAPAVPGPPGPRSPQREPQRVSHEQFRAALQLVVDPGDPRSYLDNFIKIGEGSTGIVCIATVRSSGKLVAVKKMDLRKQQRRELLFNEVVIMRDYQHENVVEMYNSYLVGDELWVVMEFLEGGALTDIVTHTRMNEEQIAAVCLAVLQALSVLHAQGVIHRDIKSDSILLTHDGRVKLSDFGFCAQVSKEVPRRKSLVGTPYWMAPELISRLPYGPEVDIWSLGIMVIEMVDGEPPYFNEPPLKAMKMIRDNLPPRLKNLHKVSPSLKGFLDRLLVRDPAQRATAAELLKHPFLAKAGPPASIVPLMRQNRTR
Data set [8] concerns the target T3, CYP2C8 (Homo sapiens, UniProt P10632).
T3 construct: tissue Corning 452117; host or cells: pooled human liver microsomes (UltraPool HLM 150, mixed gender)
In words: CYP inhibition assay. The format is in vitro ADME. The conditions noted are these: human liver microsomes.

The target of data set [9] is KDR/VEGFR2 (Homo sapiens, UniProt P35968). In words: biochemical. Particulars: read-out: % enzyme activity, 1 μM; Run 1, Run 2.
Sequence of KDR/VEGFR2 (P35968 20-1356): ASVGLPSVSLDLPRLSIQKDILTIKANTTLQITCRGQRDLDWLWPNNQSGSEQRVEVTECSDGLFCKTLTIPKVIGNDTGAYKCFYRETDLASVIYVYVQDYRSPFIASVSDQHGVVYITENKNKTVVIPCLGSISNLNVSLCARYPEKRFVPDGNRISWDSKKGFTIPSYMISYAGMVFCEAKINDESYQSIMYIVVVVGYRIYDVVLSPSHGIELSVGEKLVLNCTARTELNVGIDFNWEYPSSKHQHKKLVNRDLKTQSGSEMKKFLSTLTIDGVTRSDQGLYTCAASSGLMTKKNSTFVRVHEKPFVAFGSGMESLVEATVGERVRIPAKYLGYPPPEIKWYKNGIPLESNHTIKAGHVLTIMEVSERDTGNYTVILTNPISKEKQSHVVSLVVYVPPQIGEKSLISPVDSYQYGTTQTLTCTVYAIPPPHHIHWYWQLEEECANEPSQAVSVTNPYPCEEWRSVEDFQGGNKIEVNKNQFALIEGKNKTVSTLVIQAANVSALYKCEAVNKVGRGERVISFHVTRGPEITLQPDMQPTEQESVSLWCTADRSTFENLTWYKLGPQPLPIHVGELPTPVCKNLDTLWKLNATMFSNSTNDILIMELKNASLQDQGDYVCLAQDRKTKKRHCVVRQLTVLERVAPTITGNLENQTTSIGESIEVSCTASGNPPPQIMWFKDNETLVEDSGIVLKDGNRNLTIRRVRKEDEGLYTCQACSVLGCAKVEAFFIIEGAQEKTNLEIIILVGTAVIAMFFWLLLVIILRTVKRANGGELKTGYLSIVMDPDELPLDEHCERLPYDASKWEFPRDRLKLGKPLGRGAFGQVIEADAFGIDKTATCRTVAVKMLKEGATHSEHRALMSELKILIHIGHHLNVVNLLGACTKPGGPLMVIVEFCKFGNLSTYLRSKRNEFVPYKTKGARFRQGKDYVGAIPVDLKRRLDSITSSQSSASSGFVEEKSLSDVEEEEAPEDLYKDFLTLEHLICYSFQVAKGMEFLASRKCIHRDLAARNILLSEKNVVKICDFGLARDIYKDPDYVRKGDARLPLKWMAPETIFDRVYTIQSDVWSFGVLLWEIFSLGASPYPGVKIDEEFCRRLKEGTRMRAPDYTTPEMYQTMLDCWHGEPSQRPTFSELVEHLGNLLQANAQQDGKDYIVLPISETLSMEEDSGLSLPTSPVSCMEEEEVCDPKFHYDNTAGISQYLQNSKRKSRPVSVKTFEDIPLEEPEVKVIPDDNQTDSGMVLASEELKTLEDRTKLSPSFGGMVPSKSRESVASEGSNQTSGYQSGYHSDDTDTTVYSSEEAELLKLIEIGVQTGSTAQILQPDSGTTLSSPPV
Data set [10] has as its target CAMK4 (Homo sapiens, UniProt Q16566). In words: biochemical. Particulars: read-out: % enzyme activity, 1 μM; Run 1, Run 2.

Data on two compounds can be found in paper PMC8213057, “Targeting ALK2: An Open Science Approach to Developing Therapeutics for the Treatment of Diffuse Intrinsic Pontine Glioma” (Journal of Medicinal Chemistry, 2020).

The structures appear in SMILES notation. Where “and” joins values, the source holds several entries; their conditions need not be identical. Identical values can stand only once. Where only a bound is given, the exact number is not on record here.

T3 sequence (P10632 whole entry): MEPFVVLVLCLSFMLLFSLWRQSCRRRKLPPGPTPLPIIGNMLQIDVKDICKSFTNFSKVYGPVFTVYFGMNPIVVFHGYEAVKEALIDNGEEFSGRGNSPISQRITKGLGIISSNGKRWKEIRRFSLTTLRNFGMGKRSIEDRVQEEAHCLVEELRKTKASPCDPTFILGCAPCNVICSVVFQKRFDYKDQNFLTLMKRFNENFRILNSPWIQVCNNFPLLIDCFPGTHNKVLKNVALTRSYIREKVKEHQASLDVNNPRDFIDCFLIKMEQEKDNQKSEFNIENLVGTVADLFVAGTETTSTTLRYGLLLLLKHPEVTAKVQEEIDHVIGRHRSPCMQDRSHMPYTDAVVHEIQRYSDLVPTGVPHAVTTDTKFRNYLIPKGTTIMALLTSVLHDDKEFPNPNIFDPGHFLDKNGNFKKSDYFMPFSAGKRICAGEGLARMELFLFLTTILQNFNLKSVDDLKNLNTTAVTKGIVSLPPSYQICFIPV
Sequence of CAMK4 (Q16566 whole entry): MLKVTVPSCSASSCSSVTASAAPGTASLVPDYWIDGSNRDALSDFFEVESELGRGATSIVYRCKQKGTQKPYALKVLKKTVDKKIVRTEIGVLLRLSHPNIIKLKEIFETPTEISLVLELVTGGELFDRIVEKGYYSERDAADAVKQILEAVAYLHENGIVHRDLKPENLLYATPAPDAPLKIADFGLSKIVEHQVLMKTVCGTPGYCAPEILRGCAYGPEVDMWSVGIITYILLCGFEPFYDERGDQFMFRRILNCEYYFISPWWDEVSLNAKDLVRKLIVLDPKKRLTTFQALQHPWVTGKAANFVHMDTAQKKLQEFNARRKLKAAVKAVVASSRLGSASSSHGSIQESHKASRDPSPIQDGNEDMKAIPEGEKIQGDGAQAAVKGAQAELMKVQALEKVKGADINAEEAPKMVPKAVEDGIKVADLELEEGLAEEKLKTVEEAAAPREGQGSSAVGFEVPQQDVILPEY

In the case of `COc1cc(-c2cncc(-c3ccc(N4CCN(C)CC4)cc3)c2C)cc(F)c1C(N)=O` [Compound 26a, 2-Fluoro-6-methoxy-4-(4-methyl-5-(4-(4-methylpiperazin-1-yl)phenyl)pyridin-3-yl)benzamide], the % enzyme activity at 1 μM in data set [1] was 22% and 21%; in data set [3], 105% and 99.5%. Also, the remaining activity at 1 µM in [2] came to 102%; in data set [7] it was 98.5%; in data set [9] it was 95.9%; in data set [10], 100%. Further, the “% enzyme activity” value is listed as 81.31% in data set [4], 91.66% in [5] and 97.69% in data set [6]. The same compound showed an IC50 in data set [8] above 50 µM.
As for `COc1cc(-c2cncc(-c3ccc(N4C[C@@H](C)N(C)[C@@H](C)C4)cc3)c2C)cc(F)c1C(N)=O` [Compound 26c, 2-Fluoro-6-methoxy-4-(4-methyl-5-(4-((3R,5S)-3,4,5-trimethylpiperazin-1-yl)phenyl)pyridin-3-yl)benzamide], the % enzyme activity at 1 μM was 30.6% and 28.4% in [1]; 98.6% and 98.2% in data set [3]. Besides, the remaining activity at 1 µM was found to be 98.8% in data set [2], 99.9% in [7], 88.4% in data set [9] and 103% in [10]. Further, the “% enzyme activity” value in data set [4] is listed as 85.13%; in data set [5], 103.03%; in data set [6] it was 96.30%. The IC50 in data set [8] was above 50 µM.
